Test results as given in publication PMC12531613, “Synthesis and Biological Evaluation of Novel 2‐(Piperidin‐4‐yl)‐1,2,3,4‐tetrahydroisoquinoline and 2‐(Piperidin‐4‐yl)decahydroisoquinoline Antimycotics” (Archiv Der Pharmazie, 2025).
≈ marks a conversion by molar mass, not a printed value. Where two headings read alike, the source gives them in different places.

Tests used:
[1] = test system: Yarrowia lipolytica; test: MIC100 microdilution assay against Yarrowia lipolytica; type: cell-based
Procedure: In previous research we found a good correlation between MIC values against Yarrowia lipolytica and pathogenic Candida species.
Determination of MICs against Yarrowia lipolytica (DSMZ, Braunschweig, Germany) was carried out according to lit. Yarrowia lipolytica was cultivated in AC‐agar (Sigma Aldrich). Concentration of yeast cells was determined by photometer and adjusted to a turbidity of 0.5 according to McFarland standard at 600 nm. All substances were dissolved in DMSO or methanol.
Determination of MICs (minimal inhibitory concentration) against Yarrowia lipolytica was carried out according to Lit.^[13] Concentration of yeast cells was determined by photometer and adjusted to a turbitity of 0.5 according to McFarland Standard.

[2] = test system: C. glabrata; test: MIC90 microdilution (EUCAST), C. glabrata; type: cell-based; details: Nakaseomyces glabratus, 24 h
Procedure: (§1) Determination of MICs (minimal inhibitory concentration) against Candida species was carried out according to the European Committee of Antifungal Susceptibility Testing. Concentration of yeast cells was determined by photometer and adjusted to a turbidity of 0.5 according to McFarland standard. MIC90 was determined by microdilution plate reader (Sunrise Tecan) at 450 nm, after 24 h incubation at 37°C. MIC90 was defined as the minimal concentration of chemical causing 90% growth inhibition, respectively. Growth inhibition of molds was determined by eye and microscopically, following EUCAST guidelines. All substances were dissolved in DMSO and diluted in RPMI 1640 medium, containing 2% glucose. All assays were carried out twice.

[3] = test system: A. fumigatus (A65); test: MIC90 growth inhibition of molds (EUCAST), A. fumigatus (A65); type: cell-based; details: Aspergillus fumigatus, RPMI 1640, 2% glucose, read by eye and microscopically
Procedure: Determination of MICs (minimal inhibitory concentration) against Candida species was carried out according to the European Committee of Antifungal Susceptibility Testing. Concentration of yeast cells was determined by photometer and adjusted to a turbidity of 0.5 according to McFarland standard. […] Growth inhibition of molds was determined by eye and microscopically, following EUCAST guidelines. […] All assays were carried out twice.

[4] = test system: A. fumigatus (R16); test: MIC90 growth inhibition of molds (EUCAST), A. fumigatus (R16); type: cell-based; details: Aspergillus fumigatus
Procedure: as §1

[5] = test system: A. fumigatus (R7); test: MIC90 growth inhibition of molds (EUCAST), A. fumigatus (R7); type: cell-based; details: Aspergillus fumigatus
Procedure: as §1

[6] = test system: R. microsporus; test: MIC90 growth inhibition of molds (EUCAST), R. microsporus; type: cell-based; details: Rhizopus microsporus
Procedure: as §1

[7] = test system: R. arrhizus (oryzae); test: MIC90 growth inhibition of molds (EUCAST), R. arrhizus (oryzae); type: cell-based; details: Rhizopus arrhizus
Procedure: as §1

[8] = MTT cytotoxicity assay against HL 60 cells; type: cell-based; details: human, HL-60 cells (human leukemia cells); HL 60 cell line; MTT assay; read-out: IC50 cytotoxicity
Procedure: The cytotoxicity of the active compounds was checked in an MTT assay against human HL 60 cells. […] Although, this corresponds to the MIC range that would be needed in treatment, the values are within the range observed for commonly used antimycotics such as amorolfine and posaconazole. All active compounds were evaluated for their biopharmaceutical behavior and drug‐likeness using the online program SwissADME [26] and should show oral bioavailability according to the Lipinski rules of five.
HL‐60 cells (human leukemia cells, DSM No. ACC3) were obtained from DSMZ (German Collection of Microorganisms and Cell Cultures, Braunschweig, Germany) and cultivated in RPMI 1640 medium with 10% fetal bovine serum (FBS), both from PAA Laboratories, Cölbe, Germany) without the addition of antibiotics at 37°C in a humidified atmosphere containing 5% CO2. The assay was performed according to lit.

[9] = test system: Candida isolates; test: MIC90 against Candida isolates; type: cell-based; details: span over the Candida isolates tested
Procedure: as §1

[10] = test system: molds; test: Growth inhibition of molds; type: cell-based; details: against the molds
Procedure: as §1

[11] = test system: C. albicans; test: MIC90 microdilution (EUCAST), C. albicans; type: cell-based; details: Candida albicans, 24 h
Procedure: as §1

[12] = test system: C. krusei; test: MIC90 microdilution (EUCAST), C. krusei; type: cell-based; details: Pichia kudriavzevii, 24 h
Procedure: as §1

[13] = test system: Candida species; details: reported values; cited from earlier work
[14] = 48 h, read-out: Biological Activity MIC Yarrowia lipolytica
[15] = read-out: MIC100 (molar value in brackets)

SMILES | MIC [1, 14] | MIC ([1]; 48 h, read-out: MIC100) | MIC [1, 15] | MIC90 [2] | MIC90 [3] | MIC90 [4] | MIC90 [5] | MIC90 [6] | MIC90 [7] | IC50 [8] | MIC90 [9] | growth inhibition at concentrations (molds) [10] | MIC90 [11] | MIC90 [12] | MIC values against Candida species [13]
CCCCCCCCCCCCN1CCC(N2CCC3CCCCC3C2)CC1 (racemic) [6i, (±)‐2‐(1‐Dodecylpiperidin‐4‐yl)‐decahydroisoquinoline] | 1.6 µg/mL | 1.6 µg/mL | 4.1 µM | 16 µg/mL (≈ 41 µM) | 32 µg/mL (≈ 81.9 µM) | 32 µg/mL (≈ 81.9 µM) | 32 µg/mL (≈ 81.9 µM) | > 32 µg/mL | > 32 µg/mL | 23 µg/mL (≈ 58.9 µM) | 2 to 16 µg/mL (≈ 5.12 to 41 µM) | 16 to 32 µg/mL |  |  | 
CC(C)=CCCC(C)CCN1CCC(N2CCC3CCCCC3C2)CC1 (racemic) [6k, (±)‐2‐[1‐(3,7‐Dimethyloct‐6‐en‐1‐yl)‐piperidin‐4‐yl]‐decahydroisoquinoline] | 6.3 µg/mL | 6.3 µg/mL | 17.5 µM | > 32 µg/mL | > 32 µg/mL | > 32 µg/mL | > 32 µg/mL | > 32 µg/mL | 16 µg/mL (≈ 44.4 µM) | 17 µg/mL (≈ 47.1 µM) |  | 16 to 32 µg/mL | 16 µg/mL (≈ 44.4 µM) | 8 µg/mL (≈ 22.2 µM) | 
CCCCCCCCN1CCC(N2CCc3cc(OC)c(OC)cc3C2)CC1 [6e, 6,7‐Dimethoxy‐2‐(1‐octylpiperidin‐4‐yl)‐1,2,3,4‐tetrahydroisoquinoline] | 1.6 µg/mL | 1.6 µg/mL | 4.1 µM | > 32 µg/mL | > 32 µg/mL | > 32 µg/mL | > 32 µg/mL | > 32 µg/mL | > 32 µg/mL | > 100 µg/mL |  |  | 32 µg/mL (≈ 82.3 µM) | 8 µg/mL (≈ 20.6 µM) | 
CCCCCCCCCCCCN1CCC(N2CCc3cc(OC)c(OC)cc3C2)CC1 [6f, 2‐(1‐Dodecylpiperidin‐4‐yl)‐6,7‐dimethoxy‐1,2,3,4‐tetrahydroisoquinoline] | 3.1 µg/mL | 3.1 µg/mL | 7 µM |  | > 32 µg/mL | > 32 µg/mL | > 32 µg/mL | > 32 µg/mL | > 32 µg/mL | 6 µg/mL (≈ 13.5 µM) | 2 to 16 µg/mL (≈ 4.5 to 36 µM) |  | 4 µg/mL (≈ 8.99 µM) | 2 µg/mL (≈ 4.5 µM) | 
CC(C)=CCC/C(C)=C/CN1CCC(N2CCC3CCCCC3C2)CC1 (stereo not shown) [6l, 2‐{1‐[(2E)‐3,7‐Dimethylocta‐2,6‐dien‐1‐yl]piperidin‐4‐yl}‐decahydroisoquinoline] | 12.5 µg/mL | 12.5 µg/mL | 34.9 µM | > 32 µg/mL | > 32 µg/mL | > 32 µg/mL | > 32 µg/mL | > 32 µg/mL | 16 µg/mL (≈ 44.6 µM) | 26 µg/mL (≈ 72.5 µM) |  | 16 to 32 µg/mL | 32 µg/mL (≈ 89.2 µM) | 4 µg/mL (≈ 11.2 µM) | 
CC(Cc1ccc(C(C)(C)C)cc1)CN1CCCCC1 (stereo not shown) [fenpropidin] |  |  |  |  |  |  |  |  |  |  |  |  |  |  | 0.25 to 1 µg/mL
CC(Cc1ccc(C(C)(C)C)cc1)CN1C[C@@H](C)O[C@@H](C)C1 (stereo partly shown) [fenpropimorph] |  |  |  |  |  |  |  |  |  |  |  |  |  |  | 0.5 to 2 µg/mL
